Results on five compounds are retold here after US11963941B2, “Use of a fasting mimicking diet to enhance the efficacy of antiestrogens in cancer” (UNIVERSITA' DEGLI STUDI DI GENOVA, priority 2016, dated 2024).

The structures appear in SMILES notation. Entries after “also recorded” stand apart in the source; their conditions may differ.

In data set [1] the test system is MCF7 cells. The experiment in a line: Short-term viability assay (72 h, sulforhodamine B) with chemotherapeutics. The settings on record: FIG. 7. The data set is classed as cell-based. Here is the method:
In the experiment of FIG. 7, 5×10^3 MCF7 cells/well were plated in 96-well plates in regular DMEM medium containing 10% FBS. 24 h later, the cell medium was removed and cells were incubated for 24 h either in the same medium or in low-glucose (0.5 g/L) DMEM medium containing 1% FBS (fasting mimicking conditions). 24 h later, 10 μM tamoxifen (Tam) was added to the culture medium where indicated. 24 h later, cells were stimulated with doxorubicin or Taxotere at the indicated concentrations. Viability was determined 72 h later in sulforhodamine B assays.

For data set [2] the following is noted: literature refs [5], [6]; cited from earlier work.
In data set [3] the test system is MCF7 cells. Kind of data set: Cell viability in control vs fasting mimicking (FMD) medium. Format: cell-based. The settings on record: FMD = low-glucose (0.5 g/L) DMEM, 1% FBS, vs regular medium, FIG. 1A, 1D. The protocol: In particular, in the experiments of FIGS. 1A-D, 3×10^3 MCF7 (A, D), ZR-75-1 (B) or T47D (C) cells were plated in 96 well plates in regular DMEM medium containing 10% FBS. 24 h later, the cell medium was removed and cells were incubated for 24 h either in the same medium (CTR) or in low-glucose (0.5 g/L) DMEM medium containing 1% FBS (FMD). 24 h later, tamoxifen (Tam) or fulvestrant (Fulv) at the indicated concentrations were added to the culture medium.

Data set [4] has as its system MCF7 cells. The experiment in a line: Cell cycle analysis (G1 arrest). The data set is classed as cell-based. Conditions: 10 μM tamoxifen, 24 h, FIG. 2A. The protocol: (§1) In particular, in the experiments of FIGS. 2A-D, 5×10^5 MCF7, ZR-75-1 or T47D cells were plated in 6-well plates in regular DMEM medium containing 10% FBS. 24 h later, the cell medium was removed and cells were incubated for 24 h either in the same medium (CTR) or in fasting mimicking conditions or a fasting mimicking diet (FMD). 24 h later, 10 μM tamoxifen (Tam) was added to the culture medium where indicated. 24 h later, cells were used for cell cycle analysis or for mRNA extraction and subsequent determination of E2F1, E2F4 and CCNE1 expression by QPCR.

In data set [5] the test system is T47D cells. The experiment in a line: Cell cycle analysis (G1 arrest). The data set is classed as cell-based. Conditions: 10 μM tamoxifen, 24 h, FIG. 2C. Here is the method:
as §1

Data set [6] deals with T47D cells. The experiment in a line: Cell viability in control vs fasting mimicking (FMD) medium. Conditions: FMD = low-glucose (0.5 g/L) DMEM, 1% FBS, vs regular medium, FIG. 1C. Format: cell-based.
Data set [7] relates to MCF7 cells. Kind of data set: Gene expression by QPCR. The data set is classed as cell-based. The protocol: as §1
In the experiment of FIG. 4, MCF7, ZR-75-1 or T47D cells were treated as in the experiment of FIG. 2. 24 h after tamoxifen (5 μM) addition, cells were used for protein lysate generation or for mRNA extraction, ER and β-actin were detected by immunoblotting. TTF1 expression was determined by QPCR.
In the experiment of FIG. 6, MCF7, ZR-75-1 or T47D cells were treated as in the experiment of FIG. 2. 24 h after tamoxifen (5 μM) addition, cells were used for RNA extraction or for protein lysate generation. In FIG. 6A, RAD51 expression was detected by QPCR. In FIG. 6B, RAD51 and (β-actin were detected by immunoblotting.

Data set [8] relates to T47D cells. The experiment in a line: Gene expression by QPCR. The data set is classed as cell-based.
The subject of data set [9] is MCF7 cells. Format: cell-based. The settings on record: FMD + tamoxifen 5 μM, 24 h.
Data set [10] concerns MCF7 cells. Kind of data set: Global gene expression microarrays. The data set is classed as cell-based.
Data set [11] is classed as in vivo. The settings on record: fasting (water only, 48 h) + tamoxifen 30 mg/kg/die; FIG. 8C.
Data set [12] has as its system T47D cells.
The next data set relates to MCF7 xenografts. The experiment in a line: MCF7 xenograft tumor growth.
[13] abbreviates: FMD + tamoxifen 5 μM, 24 h, FIG. 4B.
The mark [14] stands for this setting: FMD + tamoxifen 5 μM, 24 h, FIG. 6A.
[15] abbreviates: FMD + tamoxifen 10 μM vs single treatments, FIG. 2D.
[16] abbreviates: MCF7 treated with tamoxifen and FMD, 4 biological replicates/condition.
Where [17] appears, read: FMD + tamoxifen 5 μM, 24 h, FIG. 3.

Consider `CC(=O)O[C@@]12CO[C@@H]1C[C@H](O)[C@@]1(C)C(=O)[C@H](O)C3=C(C)[C@@H](OC(=O)[C@H](O)[C@@H](NC(=O)OC(C)(C)C)c4ccccc4)C[C@@](O)([C@@H](OC(=O)c4ccccc4)[C@H]21)C3(C)C` [Taxotere, docetaxel], for which the “cell viability, triple treatment tamoxifen + Taxotere + FMD” value in the data set on MCF7 cells [1] (taxotere 100 nM) is listed as “most pronounced reduction in cell viability”.
As to `COc1cccc2c1C(=O)c1c(O)c3c(c(O)c1C2=O)C[C@@](O)(C(=O)CO)C[C@@H]3O[C@H]1C[C@H](N)[C@H](O)[C@H](C)O1` [doxorubicin], in the data set on MCF7 cells [1] (doxorubicin 100 nM), the “cell viability, triple treatment tamoxifen + doxorubicin + FMD” value is listed as “most pronounced reduction in cell viability”.
As to `CO[C@H]1C[C@@H]2CC[C@@H](C)[C@@](O)(O2)C(=O)C(=O)N2CCCC[C@H]2C(=O)O[C@H]([C@H](C)C[C@@H]2CC[C@@H](OCCO)[C@H](OC)C2)CC(=O)[C@H](C)/C=C(\C)[C@@H](O)[C@@H](OC)C(=O)[C@H](C)C[C@H](C)/C=C/C=C/C=C/1C` [everolimus], the significant side effects entry in data set [2] was “stomatitis, anemia and hyperglycemia”.
Regarding `C[C@]12CC[C@@H]3c4ccc(O)cc4C[C@@H](CCCCCCCCC[S+]([O-])CCCC(F)(F)C(F)(F)F)[C@H]3[C@@H]1CC[C@@H]2O` (some centres unmarked) [fulvestrant], the “cell viability: potentiation of drug activity by FMD conditions” value with MCF7 cells [3] is given as “marked increase”. In addition, the “induction of a G1 cell cycle arrest, drug + FMD” value in the data set with MCF7 cells [4] and in the data set on T47D cells [5] was “increased the ability” in each case.
With `CC/C(=C(\c1ccccc1)c1ccc(OCCN(C)C)cc1)c1ccccc1` [tamoxifen], the “cell viability: potentiation of drug activity by FMD conditions” value in the data set with MCF7 cells [3] and in the data set with T47D cells [6] was “strong potentiation” in each case. In addition, the “induction of a G1 cell cycle arrest, drug + FMD” value is reported as “increased the ability” in the data set with MCF7 cells [4] and “increased the ability; also recorded: only occurred in response to a combined treatment” with T47D cells [5]. For the same compound, the “TTF1 expression (ERα-mediated transcription)” value in the data set with MCF7 cells [7] (setting [13]) and with T47D cells [8] (setting [13]) was “increase the ability of tamoxifen to reduce TTF1 expression” each time. In addition, the “RAD51 expression at the mRNA level” value in the data set on MCF7 cells [7] (setting [14]) and in the data set with T47D cells [8] (setting [14]) was “strong RAD51 downregulation” each time. Moreover, the figures for the “downregulation of cell cycle promoting genes (E2F1, E2F2 and CCNE1)” value in the data set with MCF7 cells [7] (setting [15]) and with T47D cells [8] (setting [15]) were “more pronounced” and “more pronounced; also recorded: only occurred in response to a combined treatment”, respectively. The 4E-BP1 phosphorylation state entry in the data set with MCF7 cells [9] (FIG. 3) and in the data set on T47D cells [12] (setting [17]) was “marked accumulation of the unphosphorylated form” in each case. Further, the “mTOR activity (levels of phosphorylated p70S6K and eIF4E)” value in the data set with MCF7 cells [9] (FIG. 3) and with T47D cells [12] (setting [17]) was “marked inhibition of mTOR activity” throughout. Moreover, the “RAD51 expression at the protein level” value was “strong RAD51 downregulation” in the data set with MCF7 cells [9] (FIG. 6B) and “strong RAD51 downregulation” with T47D cells [12] (FMD + tamoxifen 5 μM, 24 h, FIG. 6B). The “gene ontology/pathway analysis of differentially expressed genes” value in the data set on MCF7 cells [10] (MCF7, FMD added to tamoxifen vs FMD alone or tamoxifen alone, FIG. 5) is “marked changes in pathways related to DNA repair”. Also, the “BRCA1 Log2 fold change” value in the data set on MCF7 cells [10] (setting [16]) is recorded as −1.372. In addition, the “EXO1 Log2 fold change” value in the data set with MCF7 cells [10] (setting [16]) is on record as −1.583. In addition, the “PCNA Log2 fold change” value in the data set with MCF7 cells [10] (setting [16]) is reported as −1.658. In the data set with MCF7 cells [10] (setting [16]), the “RAD51 Log2 fold change” value is recorded as −1.864. In the data set on MCF7 cells [10] (setting [16]), the “TIPIN Log2 fold change” value is −1.604. In data set [11], the “mouse body weight loss, addition of drug to fasting” value is “failed to worsen weight losses”. For the same compound, the HER2 expression result in the data set with T47D cells [12] (FMD in combination with tamoxifen 5 μM, FIG. 3) was “marked reduction in HER2 expression”. Further, in the data set with MCF7 xenografts (normal diet, tamoxifen 30 mg/kg/die oral gavage, FIG. 8A), the “growth of MCF7 xenografts (tumor volume), drug alone” value was “reduced the growth”. In addition, the “growth of MCF7 xenografts (tumor volume), drug + fasting” value with MCF7 xenografts (tamoxifen 30 mg/kg/die oral gavage + fasting (water only, 48 h, once a week), p<0.05) is on record as “significantly more effective than either type of treatment alone”.
